# Experimental data taken from US20080255134A1 (Artesian Therapeutics, Inc., priority 2004, published 2008).
# “Also recorded” adds a separate entry of the source.
# Assays:
# [1] = system: White New Zealand male rabbits; experiment: In vivo β-adrenergic blockade, isoproterenol challenge (Protocol 1); set-up: species or system rabbit; dose or concentration left out as unconfirmed; conditions: during isoproterenol challenge, intravenous, FIG. 10
# [2] = target: beta-receptors from rat cortical membranes; experiment: Non-specific β-receptor radioligand binding, [3H]DHA; conditions: read-out: Non-selective β-adrenergic IC50
# Procedure: (§1) Non-selective β-adrenergic and β1-adrenergic radioligand binding assays were performed using rat cortical membranes; β2-adrenergic receptor assays were performed using membranes isolated from CHO cells expressing human, recombinant b2-adrenergic receptor; non-selective α1-adrenergic receptor assays were performed using rat forebrain membranes; and PDE3 binding assays were performed on human platelets. Values in percent illustrate percent inhibition at 1000 nM concentration.
# [3] = target: α1-adrenergic receptor; experiment: Non-selective α1-adrenergic receptor assay using rat forebrain membranes; assay type: binding
# Procedure: as §1, with “The ability of Compounds 25 and 8c to inhibit PDE3 and β-adrenergic receptor activity was examined both in vitro and in vivo. […] Non-selective” for “Non-selective”
# [4] = system: White New Zealand male rabbits; experiment: In vivo hemodynamic effects of compounds administered alone (Protocol 2); set-up: species or system rabbit
# Procedure: (§2) Studies were performed on White New Zealand male rabbits (2-3 kg weight). Animals were initially anesthetized with ketamine (50 mg/kg; IM) and xylazine (6 mg/kg, IM). Subsequently, animals were intubated (via tracheotomy; 3 mm tube) and ventilated with 2% isoflurane (mixed in 95% O2+5% CO2). Each rabbit was instrumented for LV pressure (3F Millar catheter) through right carotid artery, arterial pressure (3F catheter, Cook Instruments) through left femoral artery, which was connected to a fluid-filled pressure transducer (BD Instruments), and ECG. Both pressure transducers were zeroed against atmospheric pressure, and calibrated before each study using an analog manometer. Upon completion of instrumentation, isoflurane was reduced to 1.25%, and the animal was covered for maintenance of body core temperature. Arterial and LV blood pressures (LVP) and the ECG signals were simultaneously digitally recorded on a PC. The recording system (Gould Instruments) and the corresponding software (Ponema, Gould Instruments) facilitated detailed calculation of various parameters directly from all signals and record on a separate file with a 1 sec resolution. Upon completion of the study protocol, rabbits were euthenized by isoflurane overdose (5% for at least 1 minute) and cardiac arrest through IV infusion of 5 ml 3 molar potassium chloride.
# (§3) Once the physiological variables were stable, effects of each drug on hemodynamics and ECG were determined based on two different protocols: 1) infusion of a compound of the present invention to determine the effects of the compound itself mainly on contractility, and other hemodynamic indices; and 2) infusion of a compound of the present invention while the system was challenged with 0.5 ug/kg isoproterenol to determine the beta-adrenergic antagonism properties of each tested compound.
# (§4) White New Zealand male rabbits (2-3 kg) were anesthetized and ventilated (95% O2+5% CO2) with 1.25% isoflurane. Each animal was instrumented for LV pressure (Millar, through left carotid artery), arterial pressure (left femoral artery), infusion (jugular vein), and electrocardiogram. The animals were administered intravenously based on one of these protocols:
# Protocol 2: PDE3 inhibition (effects of compounds when administered alone).
# [5] = system: White New Zealand male rabbits; experiment: In vivo β-adrenergic blockade, isoproterenol challenge (Protocol 1); set-up: species or system rabbit
# Procedure: as §2, §3, §4
# Protocol 1: β-adrenergic blockade (isoproterenol challenge).
# [6] = system: human fetal cardiac fibroblasts; experiment: Cyclic-AMP production by fluorescence (intrinsic sympathomimetic activity); assay type: cell-based; conditions: IBMX (750 μM) present; compared to isoproterenol or forskolin; any concentration tested
# Procedure: The effect of Compound 8c on cyclic-AMP production was determined in human fetal cardiac fibroblasts by fluorescence, presented in FIG. 18 as [F−Fo)/Fo], mean±SEM, N=4. IBMX (750 μM) was present in all assays.
# [7] = system: isolated ventricular myocytes; experiment: Sarcomere shortening (contractility) in isolated ventricular myocytes; assay type: cell-based, rabbit
# Procedure: […] Isoproterenol, a potent β-Adrenergic agonist, can produce large increases in cardiac contraction, calcium transient amplitude, and the rates of relaxation (acceleration of relaxation or lusitropic effect). The effects of isoproterenol are then antagonized with different concentrations of a compound of the present invention.
# Cardiac myocytes were digested from healthy white New Zealand male rabbits (3-5 lbs), with enzymatic digestion. Briefly, each animal is anesthetized with ketamine (50 mg/kg) and xylazine (6 mg/kg)-IM injection in hind limb. Once the animal was sedated (˜10-15 min), 0.1-0.3 ml of pentobarbital was injected into the ear vein. The heart was exposed by a cut just below the rib-cage and bilateral thoracotomy and removed rapidly ensuring that aorta remains intact. The heart was immediately placed in oxygenated NT with Ca^2+ placed on ice for rinsing the blood out, cleared from vessels and pericardium, cannulated and maintained at 37° C. The heart was retrogradedly perfused and tissue digested with collagenase and protease. Digested myocytes were subsequently stored in 0.1 mM Ca^2+ normal tyrodes for further analyses. Sarcomere length changes upon treatment with test compounds were recorded at 37° C. in the presence of 2 mM calcium and analyzed with an IonOptix system. Sarcomere length data was acquired for each myocyte over an average of 10 beats duration, at pacing rates of 1, 2, and 3 Hz. Basal percent sarcomere shortening and length-frequency relation of each myocyte was evaluated, and serve as a measure of cellular viability.
# In vitro studies were performed using rabbit ventricular tissue, to examine the effects of Compounds 25 and 8c on myocyte contractility. New Zealand male rabbits (1.5-2.5 kg) were anesthetized with ketamine (50 mg/kg) and xylazine (6 mg/kg)-IM. The heart was exposed and removed rapidly to ensure that the aorta remained intact. The ventricular tissue was digested enzymatically. Sarcomere shortening was measured in the presence of 2 mM calcium at 37° C. using an IonOptix system; reported values were at 2 Hz pacing frequency.
# [8] = target: T1, β1-adrenergic receptor (Rattus norvegicus, UniProt P18090); experiment: β1-adrenergic radioligand binding assay using rat cortical membranes
# T1 construct: from tissue; host or cells: rat cortical membranes
# Procedure: as §1
# [9] = target: T2, human recombinant beta-1 receptors (Homo sapiens, UniProt P08588); experiment: β1-receptor radioligand binding, [125I] iodocyanopindolol, CHO-REX16 cells; conditions: at 100 nM
# T2 construct: expressed in transfected cells; host or cells: CHO-REX16 cells
# Procedure: […] receptor binding was measured in human recombinant beta-1 receptors expressed in CHO-REX16 cells, using [^125I] (-) iodocyanopindolol (2000 Ci/mmol) as the radioligand, as described in Kalaria et al., J. Neurochem. 53: 1772-81 (1998), and Minneman et al., Mol. Pharmacol. 16: 34-46 (1979).
# [10] = Compound 25 0.3 mg/kg, carvedilol 0.1 mg/kg, Protocol 1, FIG. 13
# T2 sequence (P08588 whole entry): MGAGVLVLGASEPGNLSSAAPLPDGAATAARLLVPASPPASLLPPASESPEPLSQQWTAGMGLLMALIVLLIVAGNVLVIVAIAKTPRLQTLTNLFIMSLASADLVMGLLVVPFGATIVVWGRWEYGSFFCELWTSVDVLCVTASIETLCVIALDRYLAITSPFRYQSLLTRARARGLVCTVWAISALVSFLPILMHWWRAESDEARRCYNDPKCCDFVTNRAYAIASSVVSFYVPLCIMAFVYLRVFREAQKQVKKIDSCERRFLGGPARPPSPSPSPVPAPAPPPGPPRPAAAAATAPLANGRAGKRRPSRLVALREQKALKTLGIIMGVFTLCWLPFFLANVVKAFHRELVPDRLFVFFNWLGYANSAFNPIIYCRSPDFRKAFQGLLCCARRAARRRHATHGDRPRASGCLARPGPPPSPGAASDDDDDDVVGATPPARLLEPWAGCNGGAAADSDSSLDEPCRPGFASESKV
# T1 sequence (P18090 whole entry): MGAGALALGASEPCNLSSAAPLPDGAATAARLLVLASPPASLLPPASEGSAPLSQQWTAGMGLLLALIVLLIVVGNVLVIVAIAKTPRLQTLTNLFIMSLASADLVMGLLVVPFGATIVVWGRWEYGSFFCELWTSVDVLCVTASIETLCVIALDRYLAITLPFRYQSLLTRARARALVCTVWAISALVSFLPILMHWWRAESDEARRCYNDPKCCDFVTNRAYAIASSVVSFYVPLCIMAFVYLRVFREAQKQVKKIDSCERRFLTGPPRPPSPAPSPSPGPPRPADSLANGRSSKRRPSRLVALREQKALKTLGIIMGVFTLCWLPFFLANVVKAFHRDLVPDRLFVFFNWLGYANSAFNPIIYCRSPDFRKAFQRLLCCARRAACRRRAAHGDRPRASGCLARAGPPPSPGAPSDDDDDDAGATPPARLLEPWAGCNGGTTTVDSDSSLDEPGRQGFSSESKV
smiles,measurement,setting,value
"O=C1CCC(c2ccc(OCCNCC(O)COc3cccc4[nH]c5ccccc5c34)c(Cl)c2)=NN1 (racemic) [Compound 25, 6-(4-{2-[3-(9H-Carbazol-4-yloxy)-2-hydroxy-propylamino]-ethoxy}-3-chloro-phenyl)-4,5-dihydro-2H-pyridazin-3-one]",β-adrenergic antagonism on left ventricular contractility,[1],potent dose-dependent β-adrenergic antagonism
same,IC50,[2],3 nM
same,IC50,[3],349 nM
same,heart rate when administered alone,"[4]; Protocol 2, with and without atropine and bilateral vagotomy (FIG. 16)",minimal effect on heart rate; also recorded: did not increase heart rate
same,left ventricular contractility when administered alone,"[4]; protocol 2, relative to control, FIGS. 2, 12",increased or maintained contractility in a dose-dependent manner
same,contractility (LV+dP/dtmax) at ED50,[5]; [10],increased contractility
same,mean arterial pressure (MAP) at ED50,[5]; [10],more potent decrease in mean arterial pressure (MAP) than carvedilol
same,ED50,"[5]; Oryctolagus cuniculus, isoproterenol challenge (0.5 μg/kg), intravenous, read-out: ED50, dose that diminished isoproterenol-dependent increase in HR by 50%",0.3 mg/kg
same,relaxation properties (Tau) at ED50,"[5]; compared to control, Protocol 1, FIG. 13",did not change the relaxation properties (Tau)
same,β-adrenergic antagonism on heart rate (HR),"[5]; during isoproterenol challenge (0.5 μg/kg), FIG. 11",dose-dependent β-adrenergic antagonism
same,intrinsic sympathomimetic activity (cyclic-AMP production),[6],neither Compound 8c nor Compound 25 possessed intrinsic sympathomimetic activity
same,blocking of isoproterenol effect on myocyte contractility,[7]; 0.1 μM isoproterenol,blocking the effects of 0.1 μM isoproterenol
same,contractility (sarcomere shortening) in isolated ventricular myocytes,"[7]; 2 mM calcium, 37° C., 2 Hz pacing frequency",increased contractility
same,IC50,[8],2 nM
same,inhibition at 0.1 µM,[9],> 25%
